Where two headings read alike, the source gives them in different places. One block for each molecule: values may come before it.
Legend:
LS-513 = assay: 72-hour CellTiter-Glo 2.0 growth inhibition screen (single agent, 9x9 combination dose matrix); type: cell-based; conditions: LS-513, Colorectal, 72 h
AsPC-1 = assay: as above; type: cell-based; conditions: AsPC-1, Pancreas, 72 h
Calu-1 = assay: as above; type: cell-based; conditions: Calu-1, Lung, 72 h
SW48 KRAS (G12D/+) = assay: as above; type: cell-based; conditions: SW48 KRAS (G12D/+), Colorectal, 72 h; for EC50: read-out: EC50
HPAF-II = assay: as above; type: cell-based; conditions: HPAF-II, Pancreas, 72 h
Huh-7 xenografts = assay: CIVO intratumoral microinjection, Huh-7 xenografts; type: in vivo; conditions: Huh-7 liver cancer model
From the text: FIG. 6 depicts the CIVO injection array.
CC3 is not elevated over background levels at any injection site.

[1] = Additional Single Agent Responses (inhibition, % I)
[2] = Additional Single Agent Responses
[3] = growth inhibition (GI) curve, single agent
[4] = growth inhibition (GI), AUC, single agent
[5] = growth inhibition (GI), single agent

EC50 (AsPC-1; [1]): 1.33 µM | IC50 (AsPC-1; [1]): 2.32 µM | EC50 (AsPC-1; [3]): 1.35 µM | GI50 (AsPC-1; [3]): 1.34 µM | EC50 (Calu-1; [1]): 1.86 µM | IC50 (Calu-1; [1]): 1.98 µM | EC50 (Calu-1; [3]): 2.07 µM | GI50 (Calu-1; [3]): 1.68 µM | IC50 (SW48 KRAS (G12D/+); [1]): 0.572 µM | EC50 (SW48 KRAS (G12D/+); [1]): 0.463 µM | GI50 (SW48 KRAS (G12D/+); [3]): 0.428 µM | EC50 (SW48 KRAS (G12D/+); [3]): 0.541 µM
Compound: CN1CC[C@@H](c2c(O)cc(O)c3c(=O)cc(-c4ccc(C(F)(F)F)cc4Cl)oc23)[C@@H]1CO [MEI-522(Voruciclib)]
EC50 (LS-513; [1]): 0.549 µM | IC50 (LS-513; [1]): 0.633 µM | Response Area (LS-513; [1]): 2.94 | Max Response (% I) (LS-513; [2]): 90 % I | EC50 (LS-513; [3]): 0.878 µM | GI50 (LS-513; [3]): 0.529 µM | Response Area (LS-513; [4]): 4.51 | Max Response (% GI) (LS-513; [5]): 147 % GI | Response Area (AsPC-1; [1]): 1.96 | Max Response (% I) (AsPC-1; [2]): 68 % I | Response Area (AsPC-1; [4]): 2.86 | Max Response (% GI) (AsPC-1; [5]): 99 % GI | Response Area (Calu-1; [1]): 2.48 | Max Response (% I) (Calu-1; [2]): 90 % I | Response Area (Calu-1; [4]): 4.35 | Max Response (% GI) (Calu-1; [5]): 159 % GI | Response Area (SW48 KRAS (G12D/+); [1]): 2.81 | Max Response (% I) (SW48 KRAS (G12D/+); [2]): 84 % I | Response Area (SW48 KRAS (G12D/+); [4]): 4.36 | Max Response (% GI) (SW48 KRAS (G12D/+); [5]): 139 % GI | EC50 (HPAF-II; [1]): 1.31 µM | IC50 (HPAF-II; [1]): 1.88 µM | Response Area (HPAF-II; [1]): 2.09 | Max Response (% I) (HPAF-II; [2]): 72 % I | EC50 (HPAF-II; [3]): 1.33 µM | GI50 (HPAF-II; [3]): 1.34 µM | Response Area (HPAF-II; [4]): 2.84 | Max Response (% GI) (HPAF-II; [5]): 97 % GI

Compound: CN1CC[C@@H](c2c(O)cc(O)c3c(=O)cc(-c4ccc(C(F)(F)F)cc4Cl)oc23)[C@@H]1CO [Voruciclib, (+)-trans-2-(2-Chloro-4-trifluoromethylphenyl)-5,7-dihydroxy-8-(2-hydroxymethyl-1-methylpyrrolidin-3-yl)-chromen-4-one]
apoptotic cells (CC3) (Huh-7 xenografts): do not result in an increase in apoptotic cells
